Here are results for one compound from article PMC11483378, “Triazole-Based Thiamine Analogues as Inhibitors of Thiamine Pyrophosphate-Dependent Enzymes: 1,3-Dicarboxylate for Metal Binding” (ACS Omega, 2024).

pIC50: −log10 of the molar value.

Data set [1] addresses A. viridans PO (Aerococcus viridans, UniProt A9X9K8). Also on record: method as in PMID 37201323. Conditions: assay conditions of previous study; cited from earlier work.
Data set [2] addresses T1, Porcine PDH E1 (Sus scrofa, UniProt P29804).
T1 sequence (P29804 31-390): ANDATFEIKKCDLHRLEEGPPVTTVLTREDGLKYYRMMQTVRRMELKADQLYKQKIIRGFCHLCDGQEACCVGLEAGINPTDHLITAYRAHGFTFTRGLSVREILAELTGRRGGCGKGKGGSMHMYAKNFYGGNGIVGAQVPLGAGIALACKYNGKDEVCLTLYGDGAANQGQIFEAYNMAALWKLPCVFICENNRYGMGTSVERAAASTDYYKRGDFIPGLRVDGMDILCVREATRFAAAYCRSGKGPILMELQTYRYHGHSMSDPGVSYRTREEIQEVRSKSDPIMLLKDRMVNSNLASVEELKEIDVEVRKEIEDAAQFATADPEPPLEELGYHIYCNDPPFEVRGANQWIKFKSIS
Also on record: method as in PMID 37201323. The conditions noted are these: assay conditions of previous study; cited from earlier work.

In data set [3] the target is E. coli OGDH E1 (Escherichia coli, UniProt P0AFG3). Also on record: method as in PMID 37201323. The conditions noted are these: assay conditions of previous study; cited from earlier work.
In data set [4] the target is T2, S. cerevisiae PDC (Saccharomyces cerevisiae, UniProt P06169).
T2 construct: purchased Sigma
T2 sequence (P06169 2-563 limits assumed): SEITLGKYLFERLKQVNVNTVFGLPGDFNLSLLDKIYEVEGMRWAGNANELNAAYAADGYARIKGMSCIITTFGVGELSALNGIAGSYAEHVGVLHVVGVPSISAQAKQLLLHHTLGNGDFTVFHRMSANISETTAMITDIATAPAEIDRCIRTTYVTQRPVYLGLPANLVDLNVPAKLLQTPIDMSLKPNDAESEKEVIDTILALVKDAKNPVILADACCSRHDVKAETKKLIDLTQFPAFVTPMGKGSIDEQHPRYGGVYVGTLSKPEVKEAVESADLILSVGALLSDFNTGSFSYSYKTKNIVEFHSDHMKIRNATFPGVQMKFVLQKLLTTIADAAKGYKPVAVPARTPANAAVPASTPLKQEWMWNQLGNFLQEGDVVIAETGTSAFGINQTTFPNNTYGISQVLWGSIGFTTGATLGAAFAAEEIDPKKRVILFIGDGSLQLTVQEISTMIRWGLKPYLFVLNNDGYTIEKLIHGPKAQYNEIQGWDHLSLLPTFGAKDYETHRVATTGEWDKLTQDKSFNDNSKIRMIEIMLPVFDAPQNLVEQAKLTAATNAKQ
The arrangement: method as in PMID 37201323. The conditions noted are these: assay conditions of previous study; cited from earlier work.

A short description of data set [5]: PAMPA (parallel artificial membrane permeability assay). It is filed as in vitro ADME. How it is done:
PAMPA – methods and results (Table S2)
PAMPA was carried out in 96-well microtiter filter plates obtained from Millipore as described1 with some modifications. Each well of the filter plate was impregnated with 15 µL of 5% hexadecane dissolved in hexane (i.e. total amount of hexadecane: 0.75 µL) for at least 10 minutes in ventilated environment to allow for complete evaporation of hexane. Donor compartments were filled with 200 µL compound-containing donor solutions of compounds dissolved in 5% DMSO, phosphate buffered saline PBS) and connected to acceptor plate prefilled with buffer (5% DMSO in PBS, pH 7.4). The resulting sandwich was incubated at room temperature under gentle shaking and wrapped in wet paper towels to avoid evaporation. After 10 hours, the sandwich was disassembled and the solutions in the acceptor and donor were transferred to a disposable UV-transparent plate. UV absorption was measured at wavelengths between 220 and 340 nm using a microplate reader (CLARIOstar).
Compounds were tested at 500 µM. Calibration to determine concentration of compounds were performed with varying compound concentrations in buffer (5% DMSO in PBS).
The artificial membrane permeability is expressed as fraction absorbed (Fa%)2 or log Pe (log of the effective permeability)1. LogD values at pH 7.4 were calculated using MarvinSketch.
Fa% = 100 ∙CA ∙VA / CD0 ∙ VD where: CA = final drug concentration in the acceptor well (µM)
VA = volume in the acceptor well (cm3)
CD0 = Initial drug concentration in the donor well (µM)
VD = volume in the donor well (cm3) log P (cm/s) = log -ln 1-CA/Cequilibrium
S = surface area (cm2), typically 0.268 cm2
Cequilibrium = theoretical equilibrium concentration = [CD ∙VD+CA ∙VA] / [VD+VA] where: CD = final drug concentration in the donor well (µM)
CA = final drug concentration in the acceptor well (µM)
Table S2. Permeability data.
Compounds Fa (%) PAMPA log Pe (cm/s) cLogD (pH = 7.4)
Background: PAMPA measures passive passage across an artificial lipid membrane.

Broadly, the pIC50 is the negative decadic logarithm of the IC50, by convention in mol/L.

Chain of A. viridans PO (A9X9K8 entry or part of it): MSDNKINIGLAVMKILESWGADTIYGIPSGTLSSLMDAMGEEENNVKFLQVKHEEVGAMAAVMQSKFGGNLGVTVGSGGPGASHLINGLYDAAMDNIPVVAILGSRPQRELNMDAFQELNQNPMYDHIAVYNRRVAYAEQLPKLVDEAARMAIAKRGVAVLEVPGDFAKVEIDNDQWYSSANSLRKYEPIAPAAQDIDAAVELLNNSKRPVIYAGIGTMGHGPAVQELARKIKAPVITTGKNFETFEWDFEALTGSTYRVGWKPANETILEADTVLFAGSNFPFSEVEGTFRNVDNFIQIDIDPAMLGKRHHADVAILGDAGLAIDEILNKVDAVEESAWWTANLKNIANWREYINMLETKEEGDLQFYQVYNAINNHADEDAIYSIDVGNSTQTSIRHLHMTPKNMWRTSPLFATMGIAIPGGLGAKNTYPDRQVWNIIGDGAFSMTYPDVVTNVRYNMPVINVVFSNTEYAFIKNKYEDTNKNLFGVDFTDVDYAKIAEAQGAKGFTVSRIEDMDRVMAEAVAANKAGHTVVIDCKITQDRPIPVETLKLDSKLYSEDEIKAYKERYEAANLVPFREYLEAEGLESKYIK
Chain of E. coli OGDH E1 (P0AFG3 whole entry): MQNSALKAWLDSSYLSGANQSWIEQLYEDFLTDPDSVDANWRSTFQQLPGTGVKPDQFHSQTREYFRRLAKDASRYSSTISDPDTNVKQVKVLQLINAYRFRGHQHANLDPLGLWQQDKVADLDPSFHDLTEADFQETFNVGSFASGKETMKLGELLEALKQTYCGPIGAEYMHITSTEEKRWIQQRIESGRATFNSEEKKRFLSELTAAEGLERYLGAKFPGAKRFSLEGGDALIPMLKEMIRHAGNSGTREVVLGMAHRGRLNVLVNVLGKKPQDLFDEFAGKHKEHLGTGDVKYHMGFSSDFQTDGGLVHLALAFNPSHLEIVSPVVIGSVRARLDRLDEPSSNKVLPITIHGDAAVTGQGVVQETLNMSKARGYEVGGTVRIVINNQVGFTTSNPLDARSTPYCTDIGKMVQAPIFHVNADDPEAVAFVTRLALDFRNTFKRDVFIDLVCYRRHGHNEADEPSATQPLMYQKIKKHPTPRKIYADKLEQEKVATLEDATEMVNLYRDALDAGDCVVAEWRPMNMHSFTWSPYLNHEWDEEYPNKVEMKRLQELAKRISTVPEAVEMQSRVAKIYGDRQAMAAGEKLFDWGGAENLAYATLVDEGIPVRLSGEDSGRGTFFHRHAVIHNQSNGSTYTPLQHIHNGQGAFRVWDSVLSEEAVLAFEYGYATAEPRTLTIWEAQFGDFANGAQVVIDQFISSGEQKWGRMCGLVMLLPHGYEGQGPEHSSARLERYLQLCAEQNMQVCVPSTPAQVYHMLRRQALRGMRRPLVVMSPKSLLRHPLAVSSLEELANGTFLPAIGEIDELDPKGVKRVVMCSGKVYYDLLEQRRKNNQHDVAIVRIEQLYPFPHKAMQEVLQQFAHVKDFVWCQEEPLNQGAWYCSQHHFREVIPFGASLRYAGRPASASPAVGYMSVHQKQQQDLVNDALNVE

Turning to `Cc1ncc(Cn2cc(CCOP(=O)(O)O)nn2)c(N)n1` [compound 5], the pIC50 in data set [1] is 3.46; in data set [2] it was 5.18; in data set [3], 3.77; in data set [4], 2.89. In data set [5], the “membrane permeability in PAMPA (in words)” value is given as “membrane-impermeable”. For the same compound, the Papp at 10 h, 500 µM in data set [5] (PAMPA, compounds at 500 µM, 5% DMSO in PBS pH 7.4, 10 hours, room temperature, read-out: PAMPA log Pe (converted)) is 0.398 ×10⁻⁶ cm/s. Moreover, the “Fa (fraction absorbed)” value in data set [5] (compounds at 500 µM, 5% DMSO in PBS pH 7.4, 10 hours, room temperature) is on record as 2%.
